Consider 121 molecules from a melting point compilation (Tetko et al.).

The molecule `O=C(O)c1ccc(Oc2ccc(F)cc2[N+](=O)[O-])c(Cl)c1` returned a melting point of 155 to 157 °C.
`O=C(O)c1ccc(CN2C(=O)CNC2=O)cc1` returned a melting point of 282 to 284 °C.
The result for `COc1cc(/C=C/C(=O)O)ccc1OCc1c(C)noc1C` reads 110 to 112 °C; that for `Nc1cc(Cc2ccccc2)ccc1O`, 136 to 138 °C.
For the molecule `CC(Cc1ccc(C(F)(F)F)cc1)C(=O)O` (stereo unspecified), the melting point is 68 to 70 °C.
Regarding `O=C(O)C=Cc1ccc([N+](=O)[O-])o1`, the melting point lay in the range of 230 to 232 °C.
The result for `CCNCC(=O)Nc1ccc(OC)cc1` reads 88 to 90 °C; that for `CC(Cl)C(=O)Nc1c(F)c(F)c(F)c(F)c1F` (stereo unspecified), 123 to 125 °C; that for `Nc1nc(-c2c[nH]c3ccccc23)cs1`, 167 to 169 °C.
The result for `Cc1ccc(NC(=O)CC2(C(=O)O)CCCC2)cc1` reads 191 to 193 °C; that for `N#CCC(=O)c1ccsc1`, 92 to 94 °C.
The value for `NCc1cc2ccccc2[nH]1` was 71 to 73 °C; that for `Fc1ccc(-c2cnc(C3CCNCC3)[nH]2)cc1F` was 187 to 189 °C; that for `Cc1[nH]c2ccccc2c1C(=O)C(=O)O` was 199 to 201 °C.
Turning to `CCN(CC)S(=O)(=O)c1ccc(C=CC(=O)O)cc1`, the melting point is 184 to 186 °C.
The value for `COc1c(N)cc(C(C)(C)C)cc1C(C)(C)C` was 79 to 81 °C; that for `O=C(OCCl)OC1CCCCC1` was 36 to 38 °C; that for `Cc1cc(S(N)(=O)=O)sc1Br` was 149 to 151 °C.
The result for `CN1CCN(C(=O)Cc2cccc(N)c2)CC1` reads 138 to 140 °C; that for `O=Cc1cnc(-c2ccc(Cl)cc2)nc1`, 183 to 185 °C; that for `CC(C)(C)OC(=O)N[C@@H]1CCCCC[C@H]1N`, 72 to 74 °C.
Consider `COc1cc(F)cc(C(=O)O)c1N`, for which the melting point is 211 to 213 °C.
The value for `Cc1ccccc1C=NO` was 38 to 40 °C.
The result for `Nc1ccc(N2C(=O)CCC2=O)cc1` reads 239 to 241 °C; that for `O=C(O)CCC(=O)N1CCC(c2ccccc2)=N1`, 182 to 184 °C.
The result for `COCc1ccc(C(=O)O)cc1OC` reads 164 to 166 °C.
With `Cc1nc(Cl)c2cc(-c3ccccc3)sc2n1`, the melting point is 114 to 116 °C.
The value for `COc1ccc(N2CCC2=O)cc1` was 103 to 105 °C; that for `O=C(O)c1cc(=O)n(Cc2ccccc2)c2ccccc12` was 215 to 217 °C; that for `Cn1c(N)c(C(=O)CCl)c(=O)n(C)c1=O` was 185 to 187 °C.
The value for `Cn1c(Cl)nnc1-c1ccccc1` was 161 to 163 °C; that for `COC(=O)c1ccc(C(F)(F)F)cc1N` was 58 to 60 °C.
The value for `O=C(NCc1ccccc1F)c1ccc(-n2ccnc2S)cc1` was 211 to 213 °C; that for `CC(C)NC(=O)CN(C)CC(N)=S` was 140 to 142 °C; that for `O=S1(=O)NC=Nc2ccccc21` was 222 to 224 °C.
Molecule `Fc1ccc(C2CNCCO2)cc1` (stereo unspecified) had a melting point of 56 to 58 °C.
For the molecule `O=C(O)c1ccc(-c2ccc(F)cc2)o1`, the melting point lay within 193 to 195 °C.
The value for `O=C(O)C1CCN(c2nc3ccccc3o2)CC1` was 147 to 149 °C.
The result for `COC(=O)c1cc2ccc(C)cc2[nH]1` reads 131 to 133 °C.
The result for `CC1CCC(NC(=O)CCl)CC1` (stereo unspecified) reads 152 to 155 °C; that for `O=c1cc(CCl)c2cc(O)c(O)cc2o1`, 178 to 180 °C.
Turning to `COC(=O)c1c[nH][nH]c1=O`, the melting point lay in the range of 209 to 211 °C.
In the case of `CC(C)OC(=O)CC(N)=S`, the melting point fell in the range of 68 to 70 °C.
The result for `CC(C)C(=O)Nc1ccc(N)cc1` reads 74 to 76 °C; that for `O=C(O)CCCOc1ccccc1Cl`, 84 to 86 °C; that for `O=C(O)CC1Sc2ccc(C(F)(F)F)cc2NC1=O` (stereo unspecified), 236 to 238 °C.
`COc1cc(CN)cc(OC)c1` showed a melting point of 35 to 37 °C.
The result for `CCCOc1ccc(OCC(=O)O)cc1` reads 106 to 108 °C; that for `O=C(O)C(=O)Cc1ccc(Cl)c(Cl)c1`, 169 to 171 °C; that for `O=C(Nc1ccc(-n2cnc3ccccc32)nc1)OCC(F)(F)F`, 239 to 241 °C.
The value for `Nc1cc(S(=O)(=O)NC2CC2)ccc1Cl` was 125 to 127 °C.
The value for `CCOC(=O)COc1ccc(Cl)c2cccnc12` was 113 to 115 °C; that for `c1nc(N2CCNCC2)c2ccsc2n1` was 71 to 73 °C; that for `Nc1ccc(-n2nccn2)cc1C(F)(F)F` was 84 to 86 °C.
For the molecule `NNc1ncnc2sc(-c3ccccc3)cc12`, the melting point was in the range of 263 to 265 °C.
The result for `NNc1c(Cl)cc(F)cc1Cl` reads 109 to 111 °C; that for `NN=c1ncc(F)c[nH]1`, 119 to 121 °C; that for `Clc1ccc(SCc2nc(Cl)c3c4c(sc3n2)CCC4)cc1`, 71 to 75 °C.
In turn, `NS(=O)(=O)c1ccc(Br)c([N+](=O)[O-])c1` showed a melting point of 185 to 187 °C.
The value for `Nc1cc(S(=O)(=O)Nc2ccccc2Cl)ccc1O` was 195 to 197 °C; that for `CS(=O)(=O)NCCCN` was 61 to 63 °C; that for `Cc1cc(C=O)cnc1Cl` was 47 to 49 °C.
The result for `O=C(O)c1cccnc1Oc1ccccc1Br` reads 166 to 168 °C; that for `FC(F)Oc1ccc(CNC23CC4CC(CC(C4)C2)C3)cc1`, 283 to 285 °C; that for `COc1ccc(NC(=O)c2ccc(Br)cc2)c(C)c1`, 164 to 166 °C.
The value for `O=C(O)C1Cc2ccccc2CN1C(=O)c1ccco1` (stereo unspecified) was 143 to 147 °C; that for `Oc1cccc2[nH]ncc12` was 164 to 166 °C; that for `NC(=S)Cc1cn2cc(Cl)cc(Cl)c2n1` was 189 to 191 °C.
`CN(C)c1cncc(Cl)n1`: the melting point lay in the range of 44 to 46 °C.
The result for `CN(C)c1cc2ccccc2c(=O)[nH]1` reads 185 to 187 °C; that for `O=C1C=CC(=O)N1c1ccc(F)cc1`, 160 to 162 °C.
Turning to `CCC(Oc1cccc(C)c1)C(=O)O` (stereo unspecified), the melting point was in the range of 72 to 74 °C.
The value for `Cc1nc2cc(C(=O)O)ccc2n1-c1ccccc1` was 210 to 212 °C.
The result for `CCOC(=O)c1[nH]c(C)c(C(=O)O)c1C` reads 103 to 105 °C; that for `Cc1cc(C(=O)O)c2c(C(C)C)noc2n1`, 202 to 204 °C.
`CCOC(=O)c1cnc2cc(Br)ccc2c1O` returned a melting point of 329 to 331 °C.
For the molecule `CCNc1nc(NCC)n2c(S)nnc2n1`, the melting point lay in the range of 98 to 100 °C.
The result for `O=[N+]([O-])c1ccc(Cl)c(Br)c1` reads 57 to 59 °C; that for `O=C(CCl)Nc1cccc(CSc2ccccn2)c1`, 90 to 92 °C; that for `Cc1n[nH]c(-c2ccccc2N)n1`, 153 to 155 °C.
The result for `CN(C)C1=CC(=C(N)N=O)C=CN1` reads 129 to 131 °C; that for `C[C@H](NC(=O)c1cccc([N+](=O)[O-])c1)C(=O)O`, 159 to 161 °C; that for `CC1(c2ccc(F)cc2)NC(=O)NC1=O` (stereo unspecified), 204 to 206 °C.
With `O=C(O)CCNS(=O)(=O)C(F)(F)F`, the melting point was 87 to 89 °C.
The result for `O=C(O)CCC(=O)NCC(=O)c1ccccc1Cl` reads 151 to 153 °C; that for `O=CC1=Cc2cc(Br)ccc2OC1`, 103 to 105 °C.
The result for `CC(=O)c1sc(-c2ccc(Br)cc2)nc1C` reads 103 to 105 °C; that for `Cc1ccc(-n2nnc(C(=O)O)c2C2CC2)cc1`, 173 to 175 °C.
For `O=C1c2ccc([N+](=O)[O-])cc2C(=O)N1c1ccc(F)cc1`, the melting point was 207 to 209 °C.
The result for `Fc1ccc(-c2nc(CCl)co2)cc1F` reads 59 to 61 °C; that for `CC(=O)N(C)CC(=O)O`, 137 to 139 °C; that for `O=C1NCCNC1c1ccccc1` (stereo unspecified), 139 to 141 °C.
The result for `N#Cc1cccc(Oc2ccc(N)cc2)c1` reads 39 to 41 °C.
The result for `Nc1nn(C(=O)c2ccccc2Br)c2ccccc12` reads 224 to 226 °C.
Regarding `COC(=O)c1ccc(-c2ccc(C(=O)O)cc2)cc1`, the melting point lay in the range of 300 to 302 °C.
The value for `Nc1ncc(Cc2cccc(Br)c2)s1` was 105 to 107 °C; that for `O=C(Nc1ccccc1F)C1CSCN1` (stereo unspecified) was 97 to 99 °C; that for `COc1cccc(C(=O)NN2C(=O)CSC2=S)c1` was 156 to 158 °C.
The result for `CCOc1ccc(Nc2nnc(S)s2)cc1` reads 170 to 172 °C; that for `O=C(c1ccc(F)cc1)c1cccnc1`, 92 to 94 °C; that for `Sc1nnc(-c2cccs2)n1CC1CCCO1` (stereo unspecified), 107 to 108 °C.
`N#Cc1cccc(Cc2cnc(N)s2)c1` yielded a melting point of 143 to 145 °C.
The value for `O=c1cnc2cc(F)c(F)cc2[nH]1` was 289 to 291 °C.
The value for `O=C(O)c1ccc2c(c1)COCO2` was 189 to 191 °C; that for `O=C(CN1C(=O)CCC1=O)c1ccccc1` was 144 to 146 °C.
The value for `CCOC(=O)C1=C(CBr)C(C)(C)OC1=O` was 87 to 89 °C.
For the molecule `C=CCc1cc(C(=O)O)cc(OC)c1OC`, the melting point was in the range of 124 to 126 °C.
The result for `Cc1ccc(Oc2cc(C#N)ccn2)cc1C` reads 63 to 65 °C.
Molecule `CCC(=O)Nc1ccc(O)cc1` showed a melting point of 169 to 171 °C.
The value for `COc1ccc(C(=O)O)cc1C(C)C` was 164 to 166 °C.
The result for `CC(C)N1CCCC(Br)C1=O` (stereo unspecified) reads 52 to 54 °C; that for `ClCc1cc(Cl)c2c(c1)OCCO2`, 59 to 61 °C; that for `Nc1c(C(=O)O)ccc2cccnc12`, 207 to 209 °C.
The value for `O=C(O)Cn1cc(Br)ccc1=O` was 239 to 241 °C.
Turning to `CC(C)c1nnc(S)n1N`, the melting point fell in the range of 117 to 119 °C.
The result for `CC(Cl)C(=O)Nc1cc([N+](=O)[O-])ccc1Cl` (stereo unspecified) reads 120 to 122 °C; that for `CN1CCN(CC(N)c2ccccc2)CC1` (stereo unspecified), 58 to 60 °C; that for `Cc1ccc(Nc2nnc(S)s2)c(C)c1`, 172 to 174 °C.
For `Nc1cc(NC(=O)c2ccccc2I)ccc1Cl`, the melting point was in the range of 189 to 191 °C.
`CN(C(=O)c1ccc(Cl)cc1)c1ccc(N)cc1` came in with a melting point of 152 to 154 °C.
The result for `OCC1(NCc2ccccc2)CCC1` reads 51 to 53 °C.
